Test [1] is described as follows: anticonvulsant potency and neurotoxicity in rodents, summary, in vivo study, quantitative, MES, scMET, kindled rat, Frings mice (AID 424).
For test [2], the system named is mouse i.p. maximal electroshock seizure protection, ED50. Described as above.
The mark [3] stands for this setting: measured here: kindled rat ED50.

With `O=C1CN=C(c2ccccc2Cl)c2cc([N+](=O)[O-])ccc2N1`, the ED50 in test [1] (Frings audiogenic mouse ED50) was 0.105 mg/kg; in test [1] (i.p. mouse scBic ED50), 0.039 mg/kg; in test [1] (i.p. mouse scMET ED50), 0.024 mg/kg; in test [1] (i.p. mouse scPic ED50), 0.074 mg/kg; in test [1] (i.p. rat MES ED50), 0.67 mg/kg; in test [1] (oral mouse MES ED50), 42.8 mg/kg. In addition, the ED50 in test [1] (oral mouse scMET ED50) is 0.03 mg/kg; in test [1] (oral rat MES ED50) it was 7.86 mg/kg; in test [1] (oral rat scMET ED50), 0.607 mg/kg; in test [2] it was 25.5 mg/kg; in test [2] (setting [3]) it was 0.79 mg/kg. The TD50 in test [1] (i.p. mouse neurotoxicity TD50) stood at 0.264 mg/kg; in test [1] (oral rat toxicity TD50) it was 2.38 mg/kg.
For the compound `CCC1(C)CC(=O)NC1=O` (configuration not stated), the 50% effective dose (ED50) in test [1] (Frings audiogenic mouse ED50) is 328 mg/kg; in test [1] (i.p. mouse scBic ED50) it was 272 mg/kg; in test [1] (i.p. mouse scMET ED50) it was 136 mg/kg; in test [1] (i.p. mouse scPic ED50), 226 mg/kg; in test [1] (i.p. rat MES ED50), more than 220 mg/kg; in test [1] (oral mouse MES ED50) it was more than 1000 mg/kg. The ED50 in test [1] (oral mouse scMET ED50) was 203 mg/kg; in test [1] (oral rat MES ED50), more than 500 mg/kg; in test [1] (oral rat scMET ED50) it was 167 mg/kg. The TD50 in test [1] (i.p. mouse neurotoxicity TD50) is 341 mg/kg; in test [1] (oral rat toxicity TD50), more than 500 mg/kg.
In the case of `NC(=O)N1c2ccccc2C=Cc2ccccc21`, the ED50 in test [1] (Frings audiogenic mouse ED50) was 11.2 mg/kg; in test [1] (i.p. mouse scBic ED50) it was more than 50 mg/kg; in test [1] (i.p. mouse scMET ED50), more than 50 mg/kg; in test [1] (i.p. mouse scPic ED50), 18.2 mg/kg; in test [1] (i.p. rat MES ED50) it was 4.05 mg/kg; in test [1] (oral mouse MES ED50), 11.9 mg/kg. The ED50 is 40.9 mg/kg in test [1] (oral mouse scMET ED50); 5.35 mg/kg in test [1] (oral rat MES ED50); more than 250 mg/kg in test [1] (oral rat scMET ED50); 7.81 mg/kg in test [2]; 28.2 mg/kg in test [2] (setting [3]). Moreover, the results for the TD50 in test [1] (i.p. mouse neurotoxicity TD50) and in test [1] (oral rat toxicity TD50) were 45.4 mg/kg and 364 mg/kg, respectively.
Consider `CCN(CC)CC(=O)Nc1c(C)cccc1C`, for which the TD50 in test [1] (i.p. mouse neurotoxicity TD50) stood at 65.1 mg/kg; in test [1] (oral rat toxicity TD50), 283 mg/kg. Further, the ED50 in test [1] (i.p. mouse scBic ED50) is more than 70 mg/kg; in test [1] (i.p. mouse scMET ED50) it was more than 66 mg/kg; in test [1] (i.p. mouse scPic ED50), more than 70 mg/kg; in test [1] (oral mouse MES ED50), 21 mg/kg; in test [1] (oral mouse scMET ED50), more than 140 mg/kg; in test [1] (oral rat MES ED50), 31.2 mg/kg. The ED50 is more than 250 mg/kg in test [1] (oral rat scMET ED50) and 14.4 mg/kg in test [2].
As for `CCC1(c2ccccc2)C(=O)NC(=O)NC1=O`, the TD50 in test [1] (i.p. mouse neurotoxicity TD50) turned out to be 45.5 mg/kg; in test [1] (oral rat toxicity TD50), 51 mg/kg. Besides, the ED50 in test [1] (i.p. mouse scBic ED50) came to 37.7 mg/kg; in test [1] (i.p. mouse scMET ED50), 13.9 mg/kg; in test [1] (i.p. mouse scPic ED50), 27.5 mg/kg; in test [1] (i.p. rat MES ED50), 2.61 mg/kg; in test [1] (oral rat MES ED50) it was 8.26 mg/kg; in test [1] (oral rat scMET ED50), 26.1 mg/kg. For the same compound, the median effective dose (ED50) was 11.3 mg/kg in test [2] and 19.7 mg/kg in test [2] (setting [3]).

The ED50 is the midpoint of the dose-response relation. As usually defined, the TD50 is the dose at which the toxic effect under study appears in half of the subjects.

Source of the values: PubChem BioAssay AID424 (Public Access to Neuroactive & Anticonvulsant Chemical …, 2006).
